The record followed here is patent US20170027868A1, “PEPTIDE-[…]” (priority 2015, published 2017).

Like-named read-outs stand apart in the source and are kept apart here.

Data set [1] concerns HDM-2-negative NIH-3T3 cells. In words: In vitro cellular binding at 4° C., flow cytometry. Type of data set: cell-based, mouse. As to conditions: NIH3T3 cells, 20 μg doxorubicin/ml, 1 hour, FIG. 5A. How it is done:
(§1) The exemplary procedure was as follows: cells were detached from cell culture dishes by using 0.05% trypsin and 0.02% EDTA (GIBCO). […] Afterward, the cells were washed three times with PBS and re-suspended in an appropriate volume of the buffer and were analyzed by flow cytometry. BD FACS Calibur equipped was used to read fluorescence signal.

The test system of data set [2] is HDM-2-positive C26 cells. Put plainly: In vitro cellular binding at 4° C., flow cytometry. In kind it is cell-based. The settings on record: 20 μg doxorubicin/ml, 1 hour, FIG. 5B. As to the method:
as §1
Background: A flow cytometer gives signals particle by particle.

The subject of data set [3] is C-26 colon carcinoma tumor. In words: In vivo tumor-targeted therapeutic study. As to conditions: mice bearing C-26 tumor.
Protocol: Tumor models were C26 colon carcinoma in BALB/c mice Female BALB/c mice 4-6 week's old and female C57BL/6 mice 6-12 weeks old were injected subcutaneously in the right flank with tumor cells.
Also tumor size was monitored three times a week for 60 days. Three dimensions of tumor (height, length and width) were measured with calipers and tumor volume was calculated via the following formula: tumor volume=(height×length×width)×0.5 cm^3. According to instructions for C26 tumor bearing animals, euthanasia was occurred when their body weight decreased (>20% loss of initial mass), their tumor was greater than 2.0 cm in one dimension or they became sick and unable to feed.
The median survival time (MST) and time to reach end point (TTE) for each mouse were calculated from the equation of the line obtained by exponential regression of the tumor growth curve. Subsequently, the percent of tumor growth delay (TGD) were calculated based on the difference between the mean TTE of treatment group (T) and the mean TTE of the control group (C) (% TGD=[(T−C)/C]×100).
For data set [4], the system named is C26 cells. Put plainly: In vitro cellular uptake at 37° C., flow cytometry. Type of data set: cell-based. The settings on record: 20 μg doxorubicin/ml, 3 hours, FIG. 6B.
Protocol: (§2) For evaluating in vitro cellular uptake, NIH3T3 cells were seeded in complete DMEM and C26 were seeded in complete RPMI in 24-well plates (2×10^5 cells/well). […] Then, cells were washed with PBS, detached by 100 μl of trypsin-EDTA solution (Gibco, UK) and centrifuged at 1500 rpm for 5 minutes. The cells were washed with cold PBS three times and resuspended in staining buffer before analysis. […] Then 0.9 ml of an acidified isopropanol was added to each well, and the mixture was incubated overnight at 4° C. to extract the cell-associated doxorubicin. After sedimentation of the cell debris, doxorubicin concentration was measured.
(§3) Referring to FIGS. 6A and 6B, the geometric mean fluorescence intensity (MFI) of doxorubicin in cells was analyzed by using flow cytometry (FCM) in the FL2 channel.
Data set [5] can be described thus: Bio-distribution study in tumor-bearing mice. As to conditions: 24 and 48 h; FIG. 8A.
Protocol: Blood samples were collected 3, 6, and 12 hours after drug injection via retro orbital bleeding.
Animals were sacrificed at 24 and 48 h after drug administration and blood samples were drawn by heart puncture. The whole tumor, one of the kidneys, spleen, heart, lungs as well as a portion of the liver and muscle were dissected, weighted and homogenized in acidified isopropanol with zirconia beads by Mini-Beadbeater-1 (Biospec, OK). Then the blood and the homogenized tissue samples were centrifuged and the blood serum as well as the sera of tissue samples were diluted in adequate volume of acidified isopropanol and stored at 4° C. overnight for Doxorubicin extraction.
The samples were centrifuged and the supernatant was assayed for Doxorubicin concentration by measuring fluorescence at λEx/Em=480/590 nm compared with Doxorubicin calibration curves, which were prepared in the tissue and sera extracts of the control mice. The pharmacokinetic concentration of doxorubicin was shown as μg/ml of serum.
The subject of data set [6] is C26 cells. Put plainly: cells.
Protocol: At first, C26 cells were seeded in RPMI 1640 media in 96-well plates (5000 cells/well) and were incubated at 37° C. After overnight incubation, cells were treated with different concentration of drug (1:2 serial dilutions of liposomal doxorubicin or free doxorubicin in FCS-free medium) and then incubated at 37° C. for 3 and 6 hours.
After scheduled incubation times, cells were washed with pre-warmed complete culture media and re-incubated further for 48 hours at 37° C. and then the viability of cells was determined by MTT assay; for this purpose, 20 ml of MTT (Thiazolyl Blue Tetrazolium Bromide; Sigma-Aldrich) was added to each well of the plate and was incubated for 4 hours at 37° C.
Relative cell death was calculated as follows: R=(A control−A test)/(A control−A blank) where A test and A control were the absorbance of the cells treated with the test dilutions and the culture medium (negative control). A blank was the absorbance of cell free wells.
Data set [7] has as its system HDM-2-negative NIH-3T3 cells. As to conditions: NIH3T3 cells, 20 μg doxorubicin/ml, 37° C., 3 hours; FIG. 6A.
Protocol: as §2, §3
The mark [8] stands for this setting: single i.v. dose 15 mg/kg doxorubicin.

On to `COc1cccc2c1C(=O)c1c(O)c3c(c(O)c1C2=O)C[C@@](O)(C(=O)CO)C[C@@H]3O[C@H]1C[C@H](N)[C@H](O)[C@H](C)O1` [Free doxorubicin, doxorubicin], for which the cellular binding entry in data set [1] and in data set [2] was “more than other forms of drugs” in each case. In data set [3] (15 mg/kg, [(T−C)/C]×100 of mean TTE), the “TGD (tumor growth delay)” value amounted to 24.42%. Besides, in data set [3] (setting [8]), the “MST (median survival time)” value is 27 days. Moreover, the “TTE (time to reach end point)” value in data set [3] (setting [8]) is listed as 27 days. The “cellular uptake (MFI of doxorubicin)” value in data set [4] and in data set [7] was “too high” throughout. The bio-distribution in serum entry in data set [5] is recorded as “decreasing trend over time”. Also, the IC50 (as a rule, the concentration that gives 50% inhibition) in data set [6] (C26, read-out: IC50 (μM ± SD), C26 cells, 3 h exposure, then 48 h re-incubation) was found to be 0.625 ± 0.07 µM; in data set [6] (C26, read-out: IC50 (μM ± SD), C26 cells, 6 h exposure, then 48 h re-incubation), 0.302 ± 0.05 µM.
